In patent US9073858B2, “Methods of targeted drug development” (priority 2010, dated 2015):
pIC50: −log10 of the molar value. Read-outs that look alike come from different tables or passages of the source.

Key:
MDBK line = test: MTT Cell Proliferation Assay, MDBK line; type: cell-based, bovine
From the text: (§1) The following example describes the MTT Cell Proliferation Assay.
(§2) The MTT Cell Proliferation Assay is a colorimetric assay system that measures the reduction of the tetrazolium salt MTT (3-(4,5-dimethylthiazol-2-yl)-2,5-diphenyltetrazolium bromide) into insoluble formazan crystals, produced by the mitochondria of viable cells. […] The color can then be quantified by spectrophotometric means. Among the applications for the method are drug sensitivity, cytotoxicity, response to growth factors, and cell activation. The reduction of tetrazolium salts is now recognized as a safe, accurate alternative to radiometric testing.
(§3) Two replicates on each cell plate and 2 duplicate plates gave 4 individual replicates of each concentration, in each cell line. Concentrations were diluted in 100% DMSO from 25 mM stocks.
(§4) Twelve 96 well plates of each cell line were plated. Plating was done by dislodging cells as in passage protocol, counting on a hemocytometer, re-suspending in standard growth media, and plating using a multichannel pippetor.
(§5) 16 μl of 25 mM stock+34 μl DMSO=8 mM starting concentrations, and serial diluted as with test compounds in same plate. […] Two replicates of each concentrations was run on each cell plate. All compound addition and cell treatments were done using aseptic technique under a laminar flow aseptic hood.
(§6) Control: 0.5% DMSO in treatment media was used as the control.
(§7) MTT dye (Thiazolyl Blue Tetrazolium Bromide, Sigma cat # M5655) stock was prepared in bulk and stored at 4° C. for use: 5 mgs/ml sterile PDS, shielded from light. 4 ul of this stock per 100 uls treatment media per well was used.
(§8) Plates were incubated overnight prior to treatment, with treatment day=Day 0. Compound treatments were prepared prior to washing cells to minimize time cells were dry at room temperature after final aspiration. Compounds were diluted in 100% DMSO in 96 well polypropylene plates:40 μl 25 mM stock+10 μl DMSO=20 mM; 20 μl of 20 mM+30 μl DMSO=8 mM; 20 μl of 8 mM+30 μl DMSO=3.2 mM; 20 μl of 3.2 mM+30 μl DMSO=1.3 mM; 20 μl of 1.3 mM+30 μl DMSO=0.51 mM.
(§9) 5.0 μl/ml were added to treatment media, in sterile, 2.2 ml deep well plates=0.5% dmso final. Ten μl of each dmso concentration was added to 2.0 ml of treatment media and then mixed using a 1200 μl multichannel pipettor. Cell plates were treated from the deep well plates. Treatment media was standard growth media containing 0.5% FBS and standard additions. This reduced FBS concentration allowed for a slower growth rate in cells.
(§10) Media was aspirated from cell plates, and washed with 200 μl/well sterile PBS. Aspirated PBS wash, and cell plates were treated with 200 μl of compound/treatment media per well, and incubated at 37° C., 5% CO2 for 3 days.
(§11) Prior to harvesting, visual observations were made under an inverted microscope. Plates were harvested by: aspirating the growth media; adding back MTT dye/100 μl treatment media; and incubating plates at 37° C. for 1 hour. MTT dye was aspirated. 100 μl/well dmso was added, and then shaken on a Bellco plate shaker for 5 minutes, at 4.5 setting.
(§12) Plates were read in a Tecan Sunrize UV plate reader, at 560 nm. Settings: Read mode, Outside Normal 2 sec; Shake settle time 3 sec. Data is reported as % inhibition, calculated for individual plates using control values from that plate.

EGFR = molecular target: T1, EGFR (Homo sapiens, UniProt P00533); test: EGFR in-cell Western (ICW) screening protocol; type: cell-based; parameters: unit not given here; settings: for ICW Screen: initial screen
T1 construct: endogenous in cells; host or cells: A431 cells (ATCC CRL-1555)
Protocol: The following example describes general EGFR in-cell Western (ICW) screening protocol.
Two cell plates were prepared for each compound plate.
Serum Starvation: The cells were serum starved prior to compound addition. […] The cell plates were incubated at 37° C./5% CO2 for 2 hours.
Prepared compound plates were stored at RT prior to use and at 4° C. long term.
Compound Dilution Plate Preparation: 250 μl of DMEM supplemented with 1 mg/ml BSA (Sigma A3059-10G) was added to the appropriate wells of a 96 well plate to prepare the compound dilution plates. Using a multichannel pipettor, 1.25 μl of compound from the compound plate was transferred into the compound dilution plate.
Compound Addition: The starve media was removed from the cell plates by aspiration. Using a multichannel pipettor, the compound dilution plates were mixed by pipetting up and down three times. 50 μl of mixed, diluted compound was added to each of two rows/columns on each of two cell plates. The cell plates with compound were incubated at 37° C./5% CO2 for 4 hours.
50 μl of 20 or 0 ng/ml EGF was added to the appropriate wells without the removal of compound. The compound and EGF were mixed by pipetting up and down three times.
The plates were incubated at RT for 20 min without shaking. The Fixation Solution was removed by aspiration and the plates washed four times with 200 μl each of Triton Wash Solution (1×PBS, Sigma P3813-10PK, and 0.1% Triton X-100, T8787-50ML) for 5 min with gentle shaking.
The block was removed by aspiration and 50 μl of diluted primary Ab mix was added. The plates were incubated at 4° C. overnight with gentle shaking. The plates were washed five times with 200 μl of PBST (1×PBS, Sigma P3813-10PK, and 0.1% Tween-20, Sigma P9416-50ML) for 5 min each with shaking. 50 μl of diluted secondary Ab mix was added and the plates incubated at RT for 1 h with shaking. The plates were washed 5× with 200 μl of PBST for 5 min each with shaking. One final wash with 200 μl of PBS (Sigma P3813-10PK) for 5 min with shaking was performed prior to scanning.
In some screening assays, the dilution of the secondary Ab conjugates was 1/800 rather than 1/1200.
Plate Scanning: The plates were scanned on an Odyssey Infrared Imaging System from LI-COR Biosciences. The focus offset was set at 3.5 mm and the scanning intensity set at 3 for the 700 channel and 7 for the 800 channel.
Data Analysis: The % of Maximum and % Inhibition values were calculated as follows. 700 Channel=signal for total EGFR (used to control for variation in cell number). 800 Channel=signal for phosphorylated EGFR. 800−EGF=basal level EGFR phosporylation+non-specific signal (no compound). 800+EGF=800−EGF+EGF dependent EGFR receptor phosphorylation (no compound). 700/800com=700 or 800 channel signals with compound. % Maximum={[(800com/700com)−(800−EGF/700−EGF)]/[(800+EGF/700+EGF)−(800−EGF/700−EGF)]}×100%. % Inhibition=100%−(% Maximum).

[1] = system: epithelial carcinoma A431 cell line; test: MTT Cell Proliferation Assay, A431 cell line; type: cell-based; settings: for MTT-72 h A431/MDBK (ratio) / MTT (10 Point follow-up) ratio: value in brackets; for MTT-72 h A431/MDBK (ratio): numerically MDBK value over A431 value; for MTT (10 Point follow-up) ratio: numerically MDBK over A431
From the text: as §1, §2, §3, §4, §5, §6, §7, §8, §9, §10, §11, §12

[2] = Bos taurus, MDBK, 72 h, second value of A431/MDBK pair, read-out: MTT-72 h MDBK
[3] = Homo sapiens, A-431, 72 h, 72 h, first value of A431/MDBK pair, read-out: MTT-72 h A431
[4] = Bos taurus, MDBK, 10 point follow-up, second value of pair, read-out: MTT (10 Point follow-up) MDBK
[5] = 72 h, first value of A431/MDBK pair, read-out: MTT-72 h A431
[6] = Homo sapiens, A-431, 10 point follow-up, first value of pair, read-out: MTT (10 Point follow-up) A431

T1 sequence (P00533 25-1210): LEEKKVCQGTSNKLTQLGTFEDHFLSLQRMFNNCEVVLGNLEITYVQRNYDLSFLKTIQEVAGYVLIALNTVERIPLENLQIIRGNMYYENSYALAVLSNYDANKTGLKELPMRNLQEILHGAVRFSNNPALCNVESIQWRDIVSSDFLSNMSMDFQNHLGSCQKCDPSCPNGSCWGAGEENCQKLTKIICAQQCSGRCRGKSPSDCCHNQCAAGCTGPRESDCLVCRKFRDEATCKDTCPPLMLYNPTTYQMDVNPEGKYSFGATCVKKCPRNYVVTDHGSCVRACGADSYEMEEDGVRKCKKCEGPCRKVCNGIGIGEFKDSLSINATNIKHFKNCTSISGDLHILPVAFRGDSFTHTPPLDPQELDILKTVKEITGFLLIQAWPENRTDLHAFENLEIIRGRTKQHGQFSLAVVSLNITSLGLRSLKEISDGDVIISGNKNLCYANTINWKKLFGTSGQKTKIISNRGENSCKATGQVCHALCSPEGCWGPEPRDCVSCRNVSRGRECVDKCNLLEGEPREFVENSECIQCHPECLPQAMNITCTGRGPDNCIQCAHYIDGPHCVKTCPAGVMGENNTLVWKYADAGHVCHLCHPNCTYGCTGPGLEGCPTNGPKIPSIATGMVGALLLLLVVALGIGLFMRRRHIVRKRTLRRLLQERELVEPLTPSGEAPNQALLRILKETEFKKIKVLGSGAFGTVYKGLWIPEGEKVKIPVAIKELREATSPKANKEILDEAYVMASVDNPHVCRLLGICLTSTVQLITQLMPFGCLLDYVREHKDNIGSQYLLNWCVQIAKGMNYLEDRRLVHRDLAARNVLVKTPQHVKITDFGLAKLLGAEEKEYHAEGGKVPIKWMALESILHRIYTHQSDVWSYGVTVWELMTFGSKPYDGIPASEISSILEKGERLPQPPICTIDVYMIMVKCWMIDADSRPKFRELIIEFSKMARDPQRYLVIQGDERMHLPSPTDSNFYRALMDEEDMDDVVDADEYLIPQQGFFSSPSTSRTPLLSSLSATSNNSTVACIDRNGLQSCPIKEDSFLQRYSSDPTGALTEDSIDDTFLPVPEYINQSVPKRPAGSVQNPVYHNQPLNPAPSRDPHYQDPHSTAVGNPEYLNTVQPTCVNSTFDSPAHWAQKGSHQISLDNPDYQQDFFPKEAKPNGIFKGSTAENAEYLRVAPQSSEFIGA

| Structure (SMILES) | pIC50 (MDBK line; [2]) | ICW Screen (EGFR) | ICW Re-Test (EGFR) | MTT-72 h A431/MDBK (ratio) ([1]; 72 h) | pIC50 [1, 3] | pIC50 (MDBK line; [4]) | MTT (10 Point follow-up) ratio [1] | pIC50 [1, 5] | pIC50 [1, 6] | pIC50 (MDBK line; 72 h, second value of A431/MDBK pair, read-out: MTT-72 h MDBK) | MTT-72 h % Max ([1]; 72 h, maximal effect printed after the ratio) |
| --- | --- | --- | --- | --- | --- | --- | --- | --- | --- | --- | --- |
| Fc1cccc(C(Nc2ccccn2)c2ccc3cccnc3c2)c1 (stereo not shown) [compound 11191] | 5.26 | 40.32 | 22.02 | 0.99 | 5.25 | – | – | – | – | – | – |
| CCOc1cc(C(NC(C)=O)c2cc([N+](=O)[O-])c3cccnc3c2O)ccc1O (stereo not shown) [compound 10951] | 5.26 | 38.95 | 31.33 | 0.97 | 5.25 | – | – | – | – | – | – |
| CCN(CC)c1ccc(C(Nc2ccccn2)c2ccc3cccnc3c2O)cc1 (stereo not shown) [compound 10965] | 5.42 | 74.54 | 92.26 | 1.00 | 5.42 | – | – | – | – | – | – |
| Cc1cccc(NC(c2ccc3c(c2)OCO3)c2ccc3cccnc3c2O)n1 (stereo not shown) [compound 10487] | 5.28 | 33.14 | – | 0.96 | – | 6.02 | 0.72 | 5.26 | 5.88 | – | – |
| Cc1ccnc(NC(c2ccc3c(c2)OCO3)c2ccc3cccnc3c2O)c1 (stereo not shown) [compound 10038] | 5.27 | 28.31 | – | 0.94 | 5.24 | – | – | – | – | – | – |
| Oc1c(C(Nc2ccccn2)c2ccc(Br)cc2)ccc2cccnc12 (stereo not shown) [compound 10048] | – | 44.94 | 15.3 | – | – | 5.28 | 0.96 | – | 5.26 | – | – |
| O=[N+]([O-])c1cccc(NC(c2ccco2)c2ccc3cccnc3c2O)c1 (stereo not shown) [compound 11056] | 5.23 | 32.48 | 18.32 | 0.94 | 5.20 | – | – | – | – | – | – |
| Cc1cccc(NC(c2cccnc2)c2ccc3cccnc3c2O)n1 (stereo not shown) [compound 10975] | 4.45 | 53.5 | 34.86 | 0.68 | 4.28 | – | – | – | – | – | – |
| CCOc1ccc(NC(c2ccccn2)c2ccc3cccnc3c2O)cc1 (stereo not shown) [compound 1073] | – | 54.34 | 38.77 | 1.53 | – | – | – | 5.32 | – | 5.13 | – |
| Oc1c(C(Nc2cccc(Cl)c2)c2ccncc2)ccc2cccnc12 (stereo not shown) [compound 11042] | 5.43 | 53.72 | 71.32 | 1.06 | 5.41 | – | – | – | – | – | – |
| Cc1ccnc(NC(c2ccc(O)cc2)c2ccc3ccc(C)nc3c2O)c1 (stereo not shown) [compound 10016] | 4.59 | 41.45 | 29.99 | 1.00 | 4.59 | – | – | – | – | – | – |
| Oc1c(C(Nc2ccccn2)c2cccc(F)c2)cc(Cl)c2cccnc12 (stereo not shown) [compound 10090] | 5.25 | 21.53 | – | 1.06 | 5.28 | 5.59 | 1.48 | – | 5.75 | – | – |
| COc1cc(C(Nc2ccccn2)c2cc(Cl)c3cccnc3c2O)cc(Br)c1O (stereo not shown) [compound 10087] | 5.24 | 62.13 | 41.13 | 1.11 | 5.28 | 5.26 | 1.18 | – | 5.33 | – | – |
| Cc1cccc(NC(c2ccccc2F)c2ccc3cccnc3c2O)n1 (stereo not shown) [compound 10015] | – | 25.99 | – | – | – | 5.48 | 0.99 | – | 5.48 | – | – |
| COc1ccc(C(Nc2cc(C)ccn2)c2ccc3cccnc3c2O)cc1C (stereo not shown) [compound 10005] | 5.43 | 43.76 | 33.76 | 1.07 | 5.46 | 5.38 | 1.20 | – | 5.46 | – | – |
| COc1ccc(NC(c2cccnc2)c2ccc3cccnc3c2O)cc1 (stereo not shown) [compound 11152] | 5.08 | 60.41 | 48.96 | 0.92 | 5.05 | – | – | – | – | – | – |
| Oc1c(C(Nc2ccccn2)c2ccc(OC(F)F)cc2)ccc2cccnc12 (stereo not shown) [compound 10466] | 6.02 | 17.15 | – | 1.31 | 6.14 | 6.11 | 1.08 | – | 6.14 | – | – |
| COC(=O)c1ccc(NC(c2cccs2)c2ccc3cccnc3c2O)cc1 (stereo not shown) [compound 11015] | 5.41 | 64.21 | 57.97 | 0.76 | 5.29 | – | – | – | – | – | – |
| C=CCOc1cccc(C(Nc2cc(C)ccn2)c2ccc3cccnc3c2O)c1 (stereo not shown) [compound 10144] | 5.28 | 39.73 | 21.02 | 0.93 | 5.25 | – | – | – | – | – | – |
| Cc1ccnc(NC(c2ccc3cccnc3c2O)c2sccc2C)c1 (stereo not shown) [compound 10963] | – | 100.4 | 99.05 | 1.98 | – | – | – | – | – | – | 40% |
